Like-named read-outs stand apart in the source and are kept apart here.
Experiments:
Smo = details: preclinical pancreatic cancer models; cited from earlier work
Caco-2 cells = details: cited from earlier work
[1] = system: PAN-04 primary human pancreas xenograft; details: PAN-04 xenograft, cited from earlier work
human Smo (hSmo) = molecular target: T1, human Smo (hSmo) (Homo sapiens, UniProt Q99835); details: 293T cells overexpressing hSmo; read-out: IC50, inhibition of cyclopamine binding to human Smo; cited from earlier work
T1 construct: expressed in transfected cells; host or cells: 293T cells

[2] = parameters: dose or concentration left out as unconfirmed; details: human beings; cited from earlier work
JH051 = JH051 PDAC subcutaneous xenograft model; assay type: in vivo, mice; details: JH 051, nab-paclitaxel 50 mg/kg 1dq4×3, TAK-441 25 mg/kg daily p.o.
Procedure: (§1) After several dose-finding studies to define the most feasible dose of nab-paclitaxel, a dose of 50 mg/kg 1dq4×3 was used. TAK-441 was selected and administered daily at the recommended dose (25 mg/kg daily p.o.). The study was conducted for 21 days. Based on the tumor volume values on experimental day 21, it was estimated the Tumor Growth Inhibition (TGI) factor as indicated in the Table 1.

[3] = parameters: dose or concentration left out as unconfirmed; details: mice; cited from earlier work
[4] = cited from earlier work
[5] = rats, cited from earlier work
Panc163 = Panc163 PDAC subcutaneous xenograft model; assay type: in vivo, mice; details: Panc 163, nab-paclitaxel 50 mg/kg 1dq4×3, TAK-441 25 mg/kg daily p.o.
Procedure: as §1, with “1. […] In order to evaluate the histological status of the stroma after treatment, Masson's Trichrome stained slides from Panc 163 and Panc 025 models were analyzed.” for “1.”

[6] = dogs, cited from earlier work
CYP isozymes = details: cited from earlier work
[7] = parameters: dose or concentration left out as unconfirmed; details: rats; cited from earlier work
[8] = cited from earlier work; remark: listed apart in the source
CYP2C8 = molecular target: T2, CYP2C8 (Homo sapiens, UniProt P10632); details: cited from earlier work
T2 sequence (P10632 1-490): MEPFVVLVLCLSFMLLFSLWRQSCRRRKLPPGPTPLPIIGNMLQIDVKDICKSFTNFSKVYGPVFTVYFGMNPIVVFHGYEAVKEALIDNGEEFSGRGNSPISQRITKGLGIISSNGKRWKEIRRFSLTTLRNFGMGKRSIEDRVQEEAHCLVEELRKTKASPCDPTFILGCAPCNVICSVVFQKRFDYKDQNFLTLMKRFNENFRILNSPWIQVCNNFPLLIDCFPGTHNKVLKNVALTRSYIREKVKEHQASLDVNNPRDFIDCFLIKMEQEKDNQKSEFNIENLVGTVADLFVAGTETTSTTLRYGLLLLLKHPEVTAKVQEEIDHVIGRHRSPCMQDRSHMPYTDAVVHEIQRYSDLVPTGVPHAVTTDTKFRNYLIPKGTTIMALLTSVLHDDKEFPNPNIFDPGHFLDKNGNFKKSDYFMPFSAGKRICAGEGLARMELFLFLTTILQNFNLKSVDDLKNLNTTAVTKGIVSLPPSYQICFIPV

Gli1 mRNA = details: MRC5 human embryonic fibroblasts; read-out: IC50, expression of Gli1 mRNA; cited from earlier work
[9] = system: castration-resistant prostate cancer; details: murine castration-resistant prostate cancer models; cited from earlier work
[10] = system: medulloblastoma allograft; details: cited from earlier work
P-glycoprotein (P-gp) = molecular target: T3, P-glycoprotein (P-gp) (Homo sapiens, UniProt P08183); details: cited from earlier work
T3 construct: endogenous in cells; host or cells: Caco-2 cells

[11] = system: Gli transcriptional activity; details: Gli-luc NIH3T3 cells; cited from earlier work
[12] = molecular target: human neurotransmitter dopamine transporter (Homo sapiens, UniProt Q01959); parameters: dose or concentration left out as unconfirmed; details: cited from earlier work
Panc025 = Panc025 PDAC subcutaneous xenograft model; assay type: in vivo, mice; details: Panc 025, nab-paclitaxel 50 mg/kg 1dq4×3, TAK-441 25 mg/kg daily p.o.
Procedure: as §1, with “1. […] In order to evaluate the histological status of the stroma after treatment, Masson's Trichrome stained slides from Panc 163 and Panc 025 models were analyzed.” for “1.”

[13] = rats; cited from earlier work
[14] = parameters: dose or concentration left out as unconfirmed; details: dogs; cited from earlier work
[15] = system: human PDE4 phosphodiesterase; parameters: dose or concentration left out as unconfirmed; details: cited from earlier work
[16] = exposures exceeding the predicted efficacious concentration

T1 sequence (Q99835 28-787): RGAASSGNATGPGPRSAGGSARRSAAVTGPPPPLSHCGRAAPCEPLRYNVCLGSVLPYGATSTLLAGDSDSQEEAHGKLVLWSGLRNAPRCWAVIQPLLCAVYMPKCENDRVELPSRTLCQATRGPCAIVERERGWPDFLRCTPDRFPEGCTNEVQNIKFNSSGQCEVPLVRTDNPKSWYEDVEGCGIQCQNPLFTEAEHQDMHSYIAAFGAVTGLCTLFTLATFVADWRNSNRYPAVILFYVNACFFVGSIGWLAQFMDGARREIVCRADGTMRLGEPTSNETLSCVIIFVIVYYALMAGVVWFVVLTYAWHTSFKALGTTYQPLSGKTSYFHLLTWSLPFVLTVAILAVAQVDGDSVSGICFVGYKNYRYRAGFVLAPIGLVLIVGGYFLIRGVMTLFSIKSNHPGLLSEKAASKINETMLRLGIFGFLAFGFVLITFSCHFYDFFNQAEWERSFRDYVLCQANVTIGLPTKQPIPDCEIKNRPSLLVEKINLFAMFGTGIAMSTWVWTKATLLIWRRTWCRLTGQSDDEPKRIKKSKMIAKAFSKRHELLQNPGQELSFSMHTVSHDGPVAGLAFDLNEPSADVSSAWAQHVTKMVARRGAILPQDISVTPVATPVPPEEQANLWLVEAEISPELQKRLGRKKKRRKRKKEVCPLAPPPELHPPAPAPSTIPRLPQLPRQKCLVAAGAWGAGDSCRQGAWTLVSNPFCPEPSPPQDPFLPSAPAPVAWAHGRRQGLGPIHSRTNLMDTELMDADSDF
T3 sequence (P08183 whole entry): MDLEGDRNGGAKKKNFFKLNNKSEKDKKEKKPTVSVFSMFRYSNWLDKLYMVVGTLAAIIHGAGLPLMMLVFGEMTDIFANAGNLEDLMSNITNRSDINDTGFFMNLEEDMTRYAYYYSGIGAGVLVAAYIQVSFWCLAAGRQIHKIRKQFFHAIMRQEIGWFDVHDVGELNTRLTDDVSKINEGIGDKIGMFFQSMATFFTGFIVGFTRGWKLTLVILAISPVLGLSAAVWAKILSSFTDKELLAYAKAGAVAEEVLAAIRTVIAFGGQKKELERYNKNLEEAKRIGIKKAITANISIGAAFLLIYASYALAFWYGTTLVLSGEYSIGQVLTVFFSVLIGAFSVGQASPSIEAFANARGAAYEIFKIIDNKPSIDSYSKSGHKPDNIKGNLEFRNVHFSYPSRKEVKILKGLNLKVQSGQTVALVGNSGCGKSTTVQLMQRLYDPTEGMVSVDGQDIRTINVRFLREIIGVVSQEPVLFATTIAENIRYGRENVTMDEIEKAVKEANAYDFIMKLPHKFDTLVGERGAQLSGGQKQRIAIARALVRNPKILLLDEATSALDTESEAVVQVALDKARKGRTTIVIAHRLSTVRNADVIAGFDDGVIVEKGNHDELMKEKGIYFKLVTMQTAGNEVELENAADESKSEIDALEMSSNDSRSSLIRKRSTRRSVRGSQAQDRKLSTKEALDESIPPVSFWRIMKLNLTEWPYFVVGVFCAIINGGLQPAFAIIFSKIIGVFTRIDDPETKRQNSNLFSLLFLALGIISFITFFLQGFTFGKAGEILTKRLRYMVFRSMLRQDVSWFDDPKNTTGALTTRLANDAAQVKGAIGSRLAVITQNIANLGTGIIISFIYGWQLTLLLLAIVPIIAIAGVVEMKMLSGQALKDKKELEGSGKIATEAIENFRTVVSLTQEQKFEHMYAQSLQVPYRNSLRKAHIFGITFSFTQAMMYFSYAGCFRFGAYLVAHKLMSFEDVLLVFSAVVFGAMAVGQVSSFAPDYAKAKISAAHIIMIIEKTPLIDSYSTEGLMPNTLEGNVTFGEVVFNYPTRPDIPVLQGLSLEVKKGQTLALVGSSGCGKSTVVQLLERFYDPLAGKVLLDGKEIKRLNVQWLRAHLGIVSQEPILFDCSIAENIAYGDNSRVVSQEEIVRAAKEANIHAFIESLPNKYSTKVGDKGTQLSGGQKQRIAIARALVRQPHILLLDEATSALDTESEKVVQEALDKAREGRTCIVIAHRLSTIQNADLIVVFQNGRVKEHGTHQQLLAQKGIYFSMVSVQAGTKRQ
Chain of human neurotransmitter dopamine transporter (Q01959 whole entry): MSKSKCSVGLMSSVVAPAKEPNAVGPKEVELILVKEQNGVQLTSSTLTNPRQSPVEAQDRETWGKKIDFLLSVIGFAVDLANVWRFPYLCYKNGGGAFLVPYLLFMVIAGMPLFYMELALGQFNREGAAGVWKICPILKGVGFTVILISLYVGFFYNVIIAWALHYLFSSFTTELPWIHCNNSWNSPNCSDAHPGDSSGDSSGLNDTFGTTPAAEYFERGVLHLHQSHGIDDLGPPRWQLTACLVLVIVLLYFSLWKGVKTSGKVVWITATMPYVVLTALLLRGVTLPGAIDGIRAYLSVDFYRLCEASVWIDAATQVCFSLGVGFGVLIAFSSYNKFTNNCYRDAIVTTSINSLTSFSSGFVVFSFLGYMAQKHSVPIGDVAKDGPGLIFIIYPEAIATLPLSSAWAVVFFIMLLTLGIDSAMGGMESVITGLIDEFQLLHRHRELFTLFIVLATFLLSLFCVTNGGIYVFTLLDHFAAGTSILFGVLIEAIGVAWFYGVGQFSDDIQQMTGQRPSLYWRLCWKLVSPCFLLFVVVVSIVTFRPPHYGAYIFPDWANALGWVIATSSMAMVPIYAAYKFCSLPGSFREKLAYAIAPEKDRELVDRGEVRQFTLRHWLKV

## CC1=C2C[C@H]3[C@@H](CC[C@@H]4C[C@H](NS(C)(=O)=O)CC[C@@]43C)[C@@H]2CC[C@@]2(C1)O[C@@H]1C[C@H](C)CN[C@H]1[C@H]2C [IPI-926]
Smo
  stroma, tumor vascularization and effect of Gem chemotherapy: selective stromal elimination, better tumor vascularization, and greater effect of Gem chemotherapy

## CCc1cc2c(c(OCC(F)(F)F)c(C(=O)NC3CCN(C(=O)CO)CC3)n2C)c(=O)n1CC(=O)c1ccccc1 [TAK-441, 6-ethyl-N-[1-(hydroxyacetyl)piperidin-4-yl]-1-methyl-4-oxo-5-(2-oxo-2-phenylethyl)-3-(2,2,2-triflurorethoxy)-4,5-dihydro-1H-pyrrolo[3,2-c]pyrdine-2-carboxamide]
Caco-2 cells
  Papp, A-to-B: 19.6 '10-6 cm/sec
[1]; stromal tumor associated
  expression of Gli1 mRNA in vivo: dose-dependent inhibition
[1]; p<0.025
  tumor activity: significant dose-dependent tumor activity
Human Smo (hSmo)
  IC50: 8.6 nM
[2]
  binding to plasma proteins: 87.7%
JH051
  TGI (%) day 21 (1 − [Tf − Ti]/[Cf − Ci]): 15%
[3]
  binding to plasma proteins: 99.7%
[4]; dogs
  CL: 6.632 mL/min/kg
  distribution volume in steady state plasma (Vss): 2.1813 L/kg
  t %: 9.8 h
[4]; fed dogs compared with fasting dogs
  increase of degree of absorption, fed versus fasting (Cmax and AUC0-24 h): approximately 2 times
[5]
  other findings of unknown relevance to humans: gait alterations and tremors
[5]; [16]
  toxicological changes: decreased body weight; atrophy of the growth plate in the ribs and hair follicles; erosion or ulceration of the gastric mucosa; anemia; necrosis and hypocellularity of the bone marrow as well as inflammation and hemorrhage in the lung
Panc163
  TGI (%) day 21 (1 − [Tf − Ti]/[Cf − Ci]): 61%
[6]
  dose-limiting toxicities: weight loss; decrease in food consumption; injuries of the gastrointestinal tract
[6]; [16]
  toxicological changes: decreased body weight; atrophy of the growth plate in the ribs and hair follicles; erosion or ulceration of the gastric mucosa; anemia; necrosis and hypocellularity of the bone marrow as well as inflammation and hemorrhage in the lung
CYP isozymes
  inhibitory effect on other CYP isozymes: no inhibitory effect
CYP isozymes; human liver microsomes
  time-dependent inhibition of CYP isoenzyme: not a time-dependent inhibitor
[7]
  binding to plasma proteins: 96.2%
[8]; a patient with basal cell carcinoma
  clinical response: partial response
[8]; after a single dose
  mean Tmax: 1.8 to 4.2 h
[8]; after several doses
  mean Tmax: 2.4 to 4.0 h
[8]; dose range 50-1600 mg
  pharmacokinetics based on plasma concentration-time AUC: linear over the entire dose range
[8]; patients
  dose-limiting toxicities: muscle spasms and fatigue
  inhibition of Gli1 gene expression in skin biopsies: observed with all doses analyzed
  median elimination half-life: 12.9 to 18.3 h
  tolerability: well-tolerated
CYP2C8
  CYP2C8 inhibition: weak inhibitor
Gli1 mRNA
  IC50: 1.9 nM
[9]
  tumor progression / paracrine Hh ligand signaling: inhibit tumor progression
[10]; Ohashi et al.
  Gli1 mRNA expression in tumor-associated stromal tissue: suppressed
[10]; medulloblastoma allograft, mouse tumor
  expression of Gli1 mRNA in vivo: dose-dependent inhibition
[10]; medulloblastoma allograft, p<0.025
  tumor activity: significant dose-dependent tumor activity
[10]; mouse medulloblastoma allograft model
  tumor growth treatment/control ratio: 3%
P-glycoprotein (P-gp)
  substrate for P-glycoprotein (P-gp) flow pump: bad substrate
[11]
  IC50: 4.4 nM
[12]
  inhibition of human dopamine transporter: 75%
Panc025
  TGI (%) day 21 (1 − [Tf − Ti]/[Cf − Ci]): 42%
[13]
  CL: 2.688 mL/min/kg
  distribution volume in steady state plasma (Vss): 0.6816 L/kg
  t %: 1.7 h
[14]
  binding to plasma proteins: 79.6%
[15]
  inhibition of human PDE4 phosphodiesterase: 67%

From patent US11911374B2, “Methods and uses for treating cancer” (NELUM CORPORATION, priority 2019, dated 2024)
